From patent publication US20140243276A1, “SMAC MIMETIC (BIRINAPANT) FOR USE IN THE TREATMENT OF PROLIFERATIVE DISEASES (CANCER)” (TETRALOGIC PHARMACEUTICALS CORPORATION, priority 2011, published 2014)
“And” between values parts separate entries of the source, which are not always exact repeats. Equal values may be shown once. “Also recorded” adds a separate entry of the source.

Experiments:
[1] = system: primary pancreatic tumors; assay: Patient-derived primary pancreatic cancer explant model
Method: (§1) An additional 6 primary pancreatic tumors were evaluated at 60 mg/kg.

[2] = human, in vivo
[3] = in vivo
Panc1 = Panc1 immunoblotting and Trypan blue staining, alone and with TRAIL; assay type: cell-based
[4] = system: primary human melanoma tumor xenograft; assay: Efficacy in primary human melanoma tumor xenograft models
[5] = system: advanced solid tumors and lymphoma; assay: Phase 1 anti-tumor activity in patients with refractory solid tumors or lymphoma; assay type: in vivo, human
[6] = Phase 1 safety and tolerability in patients; details: for tolerability: patients
[7] = mouse, in vivo
[8] = mouse, in vivo; remark: listed apart in the source
[9] = system: apoptosis pathway (PARP cleavage, caspase-3/7, cleaved cytokeratin-18); assay: Phase 1 apoptosis pathway activation markers in patients; assay type: in vivo, human
[10] = system: primary pancreatic tumors; details: mouse, in vivo
Method: as §1

MDA-MB-231 xenograft = assay: Tumor growth inhibition in MDA-MB-231 xenograft; assay type: in vivo, mice
[11] = 60 mg/kg i.p. twice weekly, 28 days
[12] = TL32711 combined with carboplatin and paclitaxel
[13] = CRC Patient 01-202, dose cohort 0.36 mg/m^2
[14] = CRC Patient 01-801, dose cohort 17.2 mg/m^2
[15] = Melanoma Patient 01-703, dose cohort 11.5 mg/m^2
[16] = patients with solid tumors and lymphoma

## CC[C@H](NC(=O)[C@H](C)NC)C(=O)N1C[C@@H](O)C[C@H]1Cc1c(-c2[nH]c3cc(F)ccc3c2C[C@@H]2C[C@H](O)CN2C(=O)[C@H](CC)NC(=O)[C@H](C)NC)[nH]c2cc(F)ccc12 [TL32711, N-{1S-[2R-(6,6′-Difluoro-3′-{4S-hydroxy-1-[2S-(2S-methylamino-propionylamino)-butyryl]-pyrrolidin-2R-ylmethyl}-1H,1′H-[2,2′]biindolyl-3-ylmethyl)-4S-hydroxy-pyrrolidine-1-carbonyl]-propyl}-2S-methylamino-propionamide]
[1]; 30 mg/kg i.p. twice weekly
  growth inhibition in primary tumor #17624: significant growth inhibition
  significant growth inhibition in primary tumor #12872: not
[1]; [11]
  T/C in the 2 primary tumors with suboptimal growth inhibition: ~0.4
  T/C in the 6 primary tumors with significant growth arrest/inhibition: −0.1 to 0.2
[1]; all dose levels (30, 45, 60 mg/kg i.p. twice weekly)
  toxicity in the tumor-bearing mice: No significant toxicity
[1]; i.p. twice weekly, dose escalation
  dose achieving significant growth inhibition in both #17624 and #12872: >= 45 mg/kg
[2]
  Fever, Number of Grade 1 or 2 Events (%): 4 (11%)
  Grade 3 or Grade 4 Adverse Events attributed to study drug: No Grade 3 or Grade 4 Adverse Events attributed to study drug
  Lymphocytopenia, Number of Grade 1 or 2 Events (%): 2 (6%)
  Nausea, Number of Grade 1 or 2 Events (%): 5 (14%)
  Rash, Number of Grade 1 or 2 Events (%): 3 (8%)
[3]; human
  half-life in the patient: long half-life
  inter-patient variability in Cmax and AUC: moderate to low
  retention (half-life) in tumor tissues: 49 h
  t1/2 in PBMCs: 29 to 35 h
  terminal half-life in plasma: 35 h
  terminal half-life in tumor tissue: 52 h
[3]; human, iv
  plasma terminal t½: 73 to 79 h
[3]
  estimated tumor exposure in patients versus primary human tumor xenograft models in mice: in excess of the measured drug levels
Panc1; Panc1, TL32711 alone
  pro-apoptotic effect: dose-dependent pro-apoptotic effect
Panc1; Panc1, TL32711 with TRAIL
  pro-apoptotic effect with TRAIL co-incubation: synergized
Panc1; Panc1, immunoblotting
  cIAP1 degradation and caspase-3 activation: rapid cIAP1 degradation leading to caspase-3 activation
[4]; 15 mg/kg twice/week versus 30 mg/kg once/week, primary melanoma model
  anti-tumor activity of biweekly versus weekly dosing schedule: did not result in enhanced anti-tumor activity
[4]; [12]
  models with tumor regressions: 4 of the 6
  reduction in bodyweight (tolerability): < 14%
[4]; single agent TL32711, 30 mg/kg IP
  primary melanoma tumor xenografts with significant tumor growth inhibition: 5 of 6 and 5/6
[5]; [13]
  cycles received before disease progression: Patient received 6 cycles (24 weeks) of TL32711 before disease
  metastatic lesions decreased on CT scan after 2 cycles: CT scan; 3 of 5 metastatic lesions decreased after 2 cycles of
  response by RECIST criteria after 2 cycles: TL32711 - Stable Disease by RECIST criteria
[5]; [14]
  clinical improvement during first 2 cycles: Patient had marked clinical improvement of early satiety and pain
  disease progression after 2 cycles: Patient progressed with development of a new liver lesion after
  patient's CEA after 1 cycle: decreased (150 to 90)
  photopenic lesion developed in a hepatic metastasis after 1 cycle: 4-5 cm
[5]; [15]
  disease progression: Progressed after 3rd cycle with increasing cutaneous lesions
  response by RECIST criteria after 2 cycles: Stable Disease by RECIST criteria after 2 cycles of TL32711
[5]; Phase 1 patients
  anti-tumor activity in patients (overall): promising early signs of anti-tumor activity; also recorded: Evidence of anti-tumor activity observed
[6]
  tolerability: well tolerated
[6]; [16]
  dose-limiting toxicities: no dose-limiting toxicities
  maximum tolerated dose (MTD): has not been reached
[6]; listed as Compound 15
  tolerability: unexpectedly well tolerated
[6]; two patients, 63 mg/m^2 weekly, 3 weeks on/1 week off
  tolerability at 63 mg/m^2: not well tolerated
[7]
  TL32711 tumor half-life after increase in exposure: 166 h
  TL32711 tumor half-life before increase in exposure: 56 h
  increase in tumor exposure for a 4-fold increase in dose: 14 fold
[8]
  half-life in plasma: 20 h
  half-life in tumor: 96 h
[9]
  PBMC PARD cleavage and plasma caspase-3 activity: dose related increase
  activated serum caspase-3/7 and cleaved cytokeratin-18 levels: dose-related
[10]
  relation of efficacy to tumor drug exposure: efficacy correlated with tumor drug exposure
MDA-MB-231 xenograft; mice bearing MDA-MB-231 xenograft
  cIAP1 inhibition in tumors throughout the dosing interval at which significant tumor growth delay and regressions were observed: > 75%
MDA-MB-231 xenograft; q3D, MDA-MB-231 xenograft
  doses causing significant tumor growth inhibition and regressions: ≥ 2.5 mg/kg
